Key:
canine cardiac PDE, CAM = experiment: Canine cardiac PDE inhibition, CAM; type: biochemical; settings: n in table
canine cardiac PDE, CGI = biological target: T1, canine cardiac PDE, CGI (Canis lupus familiaris, UniProt A0A8I3NYE0); experiment: Canine cardiac PDE inhibition, CGI; type: biochemical; settings: n in table
T1 construct: CANINE CARDIAC PDE; from tissue; host or cells: dog heart
T1 sequence (A0A8I3NYE0 1-1135): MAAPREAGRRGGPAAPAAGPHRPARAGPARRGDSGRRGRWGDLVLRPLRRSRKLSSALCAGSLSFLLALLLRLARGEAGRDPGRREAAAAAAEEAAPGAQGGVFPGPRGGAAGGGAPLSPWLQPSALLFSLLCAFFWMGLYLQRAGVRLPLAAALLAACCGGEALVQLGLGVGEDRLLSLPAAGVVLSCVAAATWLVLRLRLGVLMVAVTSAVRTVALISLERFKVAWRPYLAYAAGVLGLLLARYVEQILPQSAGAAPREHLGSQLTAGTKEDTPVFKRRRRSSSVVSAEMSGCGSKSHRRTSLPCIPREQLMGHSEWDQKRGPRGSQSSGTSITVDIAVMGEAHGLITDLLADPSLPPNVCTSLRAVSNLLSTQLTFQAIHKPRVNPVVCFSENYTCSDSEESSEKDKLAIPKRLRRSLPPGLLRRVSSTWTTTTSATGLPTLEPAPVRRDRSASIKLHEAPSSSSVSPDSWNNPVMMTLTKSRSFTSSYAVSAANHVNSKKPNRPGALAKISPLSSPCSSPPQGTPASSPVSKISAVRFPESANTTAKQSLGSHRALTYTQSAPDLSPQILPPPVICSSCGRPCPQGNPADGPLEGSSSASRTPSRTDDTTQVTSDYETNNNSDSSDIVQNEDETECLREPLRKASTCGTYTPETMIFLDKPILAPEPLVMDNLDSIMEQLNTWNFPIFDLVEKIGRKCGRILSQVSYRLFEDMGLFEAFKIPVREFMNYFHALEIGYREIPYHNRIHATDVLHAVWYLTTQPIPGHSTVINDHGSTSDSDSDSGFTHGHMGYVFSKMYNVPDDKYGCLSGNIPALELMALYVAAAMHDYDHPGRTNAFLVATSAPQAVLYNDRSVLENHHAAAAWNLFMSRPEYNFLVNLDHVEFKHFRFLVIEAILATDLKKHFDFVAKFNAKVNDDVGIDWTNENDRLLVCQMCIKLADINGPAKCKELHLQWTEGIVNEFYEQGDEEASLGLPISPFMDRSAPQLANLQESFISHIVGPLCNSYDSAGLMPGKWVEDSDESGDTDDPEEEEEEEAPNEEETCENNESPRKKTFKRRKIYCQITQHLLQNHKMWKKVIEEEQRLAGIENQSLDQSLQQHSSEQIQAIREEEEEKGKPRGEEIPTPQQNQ

[1] = tested on: canine cardiac myofibrillar Ca++-dependent Mg++-ATPase; experiment: Measurement of myofibrillar Ca++-dependent Mg++-ATPase activity on canine cardiac myofibrils; type: biochemical; settings: 30 μM, pH 7.0, 21° C.; for max (percent change of maximal ATPase activity): pCa=5.47
Experimental: 1. Measurement of myofibrillar Ca++-dependent Mq++-ATPase activity The effect on myofibrillar Ca++sensitivity and on maximal activity of myofibrillar Ca++-dependent Mg++-ATPase was determined on canine cardiac myofibrils. (a) Contractile protein preparation Cardiac myofibrils free of membrane contaminants were prepared from left ventricular tissue of dog hearts using a modification of the method described by SOLARO et al, Biochem. Biophys. Acta, 245, 259-262, (1971). Before centrifugation, the heart homogenate was filtered through gauze. After Triton X-100 treatments, the myofibrillar fraction was washed once by resuspension and centrifugation in 10 volumes of 1 mM EGTA, […], 30 mM imidazole, 2 mM MgCl2, pH 7.0. The pellet was then washed three times in 10 volumes of the same buffer without EGTA. Before the last centrifugation, the suspension of myofibrils was filtered through a stainless steel sieve with 0.25 mm meshes. Myofibrils were kept in pellet overnight. Before use, the pellet was suspended in a small amount of buffer, the protein concentration was determined by the method of BRADFORD M., Anal. Biochem., 1976, 72, 248 and adjusted in order to have a concentration between 6 and 7 mg/ml. (b) Myofibrillar ATPase activity Ca++-dependent myfibrillar ATPase activity was determined at 21° C., pH 7.0, by measuring the rate of release of inorganic phosphate. All assays were performed within 24hrs. of final purification, using the method described by SOLARO and […]., 51. 290-4,(1982). Reaction mixtures (4 ml) containing 0.6-0.7 mg/ml myofibrillar protein, 80mM KCl, 20 mM imidazole, 3 mM MgCl2, 1 mM EGTA, the desired amount of CaCl2, and the indicated concentration of drug or appropriate vehicle were preincubated for 6 min. prior to assay. The amount of CaCl2 was varied between 0 and 0.9 mM and the pCa (-log free Ca++) computed using 2.514×10^6 M^-1 as the apparent affinity of Ca++for EGTA at pH 7.0. Reactions were initiated by the addition of Na2 ATP to final concentration of 2 mM. After an incubation period of 12 min., reactions were quenched by the addition of an equal volume of ice-cold 10% trichloroacetic acid. The protein was pelleted by centrifugation (2000 g, 15 min.) and Pi was assayed in the supernatant fraction using a modification of the method described by LANZETTA et al, Anal. Biochem., 100, 95-97, (1979). The following solutions were prepared: (1) 3.7% ammonium heptamolybdate in 0.12 N H2 SO4 (2) 0.074% malachite green oxalate in 1% polyvinylic alcohol. The colour reagent was prepared by mixing an equal volume of solution (1) and (2) 15 min. before the assay. For the assay, 1,700 μl of 1% H2 SO4 and 1 ml of colour reagent were added to 100 μl of sample. Colour development occurred at room temperature for 30 min. and was quenched by the addition of 200 μl of 1M tri-potassium citrate. The absorbance was measured at 620 millimicrons. The effect of each compound, tested at the indicated concentration, on the relation between pCa and percent activation was determined taking 100% for the maximum ATPase activity obrained with vehicle alone. The effect on Ca++sensitivity was quantified by measuring the shift of the pCa giving 50% of the maximal control ATPase activity. The effect on maximal ATPase activity was expressed as the percent change of ATPase activity for pCa=5.47. Mean effects on myofibrillar ATPase activity were obtained from 1 to 5 preparations, (compounds tested at 2×10^-4 M).

anaesthetised dog = experiment: Cardiotonic activity in the dog (haemodynamics); type: in vivo, dog (male Beagle); settings: i.v.

| IC50 (canine cardiac PDE, CAM) | IC50 (canine cardiac PDE, CGI) | max (percent change of maximal ATPase activity) [1] | pCa (shift of the pCa giving 50% of the maximal control ATPase activity; Ca++ sensitivity) [1] | Compound | also measured |
| --- | --- | --- | --- | --- | --- |
| > 300000 nM | 1200 nM | -2 ± 6% | +0.38 ± 0.06 | CC1SC(=O)NN=C1c1ccc2c(c1)C(=Nc1ccccc1)C(=O)N2 (stereo not drawn) [Example 6, 1,3-6-Dihydro-5-(3,6-dihydro-6-methyl-2-oxo-2H-1,3,4-thiadiazin-5-yl)-3-phenylimino-2H-indol-2-one] |  |
|  | 1800 nM | -1 ± 2% | +0.08 ± 0.02 | CC1SC(=O)NN=C1c1ccc2c(c1)C(=NNC(=N)N)C(=O)N2 (stereo not drawn) [Example 12, 5-(3,6-Dihydro-6-methyl-2-oxo-2H-1,3,4-thiadiazin-5-yl) -1H-indole-2,3-dione 3-[2-(aminomethanimino)hydrazone]] |  |
|  |  | 26 ± 7% | +0.43 ± 0.04 | CC1SC(=O)NN=C1c1ccc2c(c1)C(=NNc1ccccc1C(F)(F)F)C(=O)N2 (stereo not drawn) [Example 31, 5-(3,6-Dihydro-6-methyl-2-oxo-2H-1,3,4-thiadiazin-5-yl) -1H-indole-2,3-dione 3-[(2-trifluoromethyl)phenylhydrazone]] | AoBF (anaesthetised dog; 0.01 mg/kg): +11 ± 5%; AoBP (anaesthetised dog; 0.01 mg/kg): -8 ± 1%; H.R. (anaesthetised dog; 0.01 mg/kg): +8 ± 2%; dP/dt Max (anaesthetised dog; 0.01 mg/kg): +9 ± 3%; AoBF (anaesthetised dog; 0.03 mg/kg): +19 ± 8%; AoBP (anaesthetised dog; 0.03 mg/kg): -15 ± 1%; H.R. (anaesthetised dog; 0.03 mg/kg): +30 ± 4%; dP/dt Max (anaesthetised dog; 0.03 mg/kg): +44 ± 13%; AoBF (anaesthetised dog; 0.1 mg/kg): +13 ± 6%; AoBP (anaesthetised dog; 0.1 mg/kg): -23 ± 2%; H.R. (anaesthetised dog; 0.1 mg/kg): +39 ± 6%; dP/dt Max (anaesthetised dog; 0.1 mg/kg): +93 ± 13% |
|  | 14000 nM | 2 ± 2% | +0.07 ± 0.02 | CC1SC(=O)NN=C1c1ccc2c(c1)C(=NNC1=NCCN1)C(=O)N2 (stereo not drawn) [Example 13] |  |
| 5600 nM | 620 nM | 0 ± 3% | +0.12 ± 0.02 | CC1SC(=O)NN=C1c1ccc2c(c1)C(=Nc1ccc(N(C)C)cc1)C(=O)N2 (stereo not drawn) [Example 14, 1,3-Dihydro-5-(3,6-dihydro-6-methyl-2-oxo-2H-1,3,4-thiadiazin-5-yl)-3-(4-dimethylaminophenylimino)-2H -indol-2-one] |  |
| 42000 nM | 2300 nM | -3 ± 5% | +0.17 ± 0.02 | CC1SC(=O)NN=C1c1ccc2c(c1)C(=NN)C(=O)N2 (stereo not drawn) [Example 7, 5-(3,6-Dihydro-6-methyl-2-oxo-2H-1,3,4-thiadiazin-5-yl)-1H -indole-2,3-dione 3-hydrazone] |  |
| > 300000 nM | 440 nM |  |  | CC1SC(=O)NN=C1c1ccc2c(c1)C(=NNC(N)=S)C(=O)N2 (stereo not drawn) [Example 4, 2-[2,3-Dihydro-5-(3,6-dihydro-6-methyl-2-oxo-2H-1,3,4-thiadiazin-5-yl)-2-oxo-1H-indol-3-ylidene]-hydrazine carbothioamide] |  |
| 20000 nM | 350 nM | -13 ± 3% | +0.43 ± 0.07 | CC1SC(=O)NN=C1c1ccc2c(c1)C(=Cc1ccccc1)C(=O)N2 (stereo not drawn) [Example 10, 1,3-Dihydro-5-(3,6-dihydro-6-methyl-2-oxo-2H-1,3,4-thiadiazin-5-yl)-3-phenylmethylene-2H-indol-2-one] |  |
| 4000 nM | 1900 nM | -28 ± 4% | +0.04 ± 0.08 | CC1SC(=O)NN=C1c1ccc2c(c1)C(=Cc1ccncc1)C(=O)N2 (stereo not drawn) [Example 18] |  |
| > 300000 nM | 680 nM | 8 ± 2% | +0.36 ± 0.05 | CC1SC(=O)NN=C1c1ccc2c(c1)C(=NOc1ccccc1)C(=O)N2 (stereo not drawn) [Example 11, 1,3,-Dihydro-5-(3,6-dihydro-6-methyl-2-oxo-2H-1,3,4-thiadiazin-5-yl)-3-phenoxyimino-2H-indol-2-one] |  |
|  |  | -2 ± 5% | +0.49 ± 0.06 | CC1SC(=O)NN=C1c1ccc2c(c1)C(=NNc1ccc(C(C)(C)C)cc1)C(=O)N2 (stereo not drawn) [Example 24, 5-(3,6-Dihydro-6-methyl-2-oxo-2H-1,3,4-thiadiazin-5-yl) -1H-indole-2,3-dione 3-[4-(1,1-dimethylethyl)phenylhydrazone]] |  |
| 31000 nM | 2100 nM | -20 ± 3% | +0.05 ± 0.07 | CC1SC(=O)NN=C1c1ccc2c(c1)C(=C(C#N)C#N)C(=O)N2 (stereo not drawn) [Example 9, [5-(3,6-Dihydro-6-methyl-2-oxo-2H-1,3,4-thiadiazin-5-yl) -1,2-dihydro-2-oxo-3H-indol-3-ylidene]-propane-dinitrile] |  |
|  |  | -13 ± 5% | +0.19 ± 0.08 | CC1SC(=O)NN=C1c1ccc2c(c1)C(=Cc1ccccn1)C(=O)N2 (stereo not drawn) [Example 20, 1,3-Dihydro-5-(3,6-dihydro-6-methyl-2-oxo-2H-1,3,4-thiadiazin-5-yl)-3-(2-pyridylmethylene)-2H-indol-2-one] |  |

From US5051417A, “Indolythiadiazines for treating heart failure” (Les Laboratoires Beecham S.A., priority 1988, dated 1991)
